Measurements from ChEMBL document CHEMBL1201862, “PubChem BioAssay data set” (2004).
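48-hour exposure; five concentrations; linearly interpolated endpoints. At the GI50, growth is halved.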 Activity calls are given as the source filed them. No stated cut-off is given here; in the data, active = GI50 up to about 1.1 µM and inactive = higher.

Experiments:
Assay in all cases: growth of human tumour cells (NCI), 48 h
[1] = test system: HOP-92
[2] = test system: NCI-H226
[3] = test system: SF-295
[4] = test system: U-251
[5] = test system: NCI-H23
[6] = test system: OVCAR-5
[7] = test system: CAKI-1
[8] = test system: BT-549
[9] = test system: UACC-257
[10] = test system: 786-0
[11] = test system: A549
[12] = test system: MOLT-4
[13] = test system: LOX IMVI
[14] = test system: MDA-MB-231
[15] = test system: UO-31
[16] = test system: MDA-N
[17] = test system: COLO 205
[18] = test system: OVCAR-4
[19] = test system: SW-620
[20] = test system: KM12
[21] = test system: EKVX
[22] = test system: SK-MEL-2
[23] = test system: MDA-MB-435
[24] = test system: SNB-19
[25] = test system: HL-60
[26] = test system: IGROV-1
[27] = test system: SNB-75
[28] = test system: TK-10
[29] = test system: HOP-62
[30] = test system: SK-OV-3
[31] = test system: HT-29
[32] = test system: M14
[33] = test system: NCI/ADR-RES
[34] = test system: ACHN
[35] = test system: SF-539
[36] = test system: NCI-H460
[37] = test system: T47D
[38] = test system: HCT-15
[39] = test system: SK-MEL-28
[40] = test system: HCC 2998
[41] = test system: OVCAR-3
[42] = test system: HCT-116
[43] = test system: PC-3
[44] = test system: SN12C
[45] = test system: OVCAR-8
[46] = test system: MCF7
[47] = test system: SK-MEL-5
[48] = test system: DU-145
[49] = test system: RPMI-8226
[50] = test system: Malme-3M
[51] = test system: SF-268
[52] = test system: SR
[53] = test system: CCRF-CEM
[54] = test system: NCI-H522
[55] = test system: A498
[56] = test system: UACC-62

With Cc1ccccc1NC(=O)Cc1csc2[n+]1C(=O)/C(=C/c1ccc([N+](=O)[O-])cc1)S2 as the compound, how does the GI50 [1] read?
Its GI50 is 19.5 µM (inactive).

And the GI50 [2]?
The GI50 was 31.2 µM (inactive).

What about the GI50 [3] of the same compound?
The GI50 was 31.8 µM (inactive).

What about the GI50 [4] of the same compound?
Its GI50 is 29.7 µM (inactive).

And the GI50 [5]?
The GI50 was 23.9 µM (inactive).

What about the GI50 [6] of the same compound?
Its GI50 is 37.8 µM (inactive).

And the GI50 [7]?
Its GI50 is 25.5 µM (inactive).

And the GI50 [8]?
Its GI50 is 13 µM (inactive).

And the GI50 [9]?
Its GI50 is 37.1 µM (inactive).

And the GI50 [10]?
The GI50 was 58.9 µM (inactive).

What about the GI50 [11] of the same compound?
Its GI50 is 32 µM (inactive).

And the GI50 [12]?
Its GI50 is 25.5 µM (inactive).

And the GI50 [13]?
The GI50 was 38.5 µM (inactive).

And the GI50 [14]?
Its GI50 is 37.5 µM (inactive).

What about the GI50 [15] of the same compound?
The GI50 was 18.4 µM (inactive).

And the GI50 [16]?
The GI50 was 37.2 µM (inactive).

And the GI50 [17]?
The GI50 was 36 µM (inactive).

What about the GI50 [18] of the same compound?
The GI50 was 12.1 µM (inactive).

And the GI50 [19]?
The GI50 was 33.6 µM (inactive).

What about the GI50 [20] of the same compound?
Its GI50 is 23.7 µM (inactive).

What about the GI50 [21] of the same compound?
The GI50 was 22.7 µM (inactive).

And the GI50 [22]?
Its GI50 is 29.4 µM (inactive).

What about the GI50 [23] of the same compound?
Its GI50 is 30.3 µM (inactive).

And the GI50 [24]?
The GI50 was 26.4 µM (inactive).

What about the GI50 [25] of the same compound?
Its GI50 is 27.7 µM (inactive).

What about the GI50 [26] of the same compound?
The GI50 was 25.7 µM (inactive).

And the GI50 [27]?
Its GI50 is 19.3 µM (inactive).

And the GI50 [28]?
Its GI50 is 19.9 µM (inactive).

What about the GI50 [29] of the same compound?
The GI50 was 33.5 µM (inactive).

And the GI50 [30]?
The GI50 was > 100 µM (inactive).

What about the GI50 [31] of the same compound?
The GI50 was 36 µM (inactive).

And the GI50 [32]?
The GI50 was 32.2 µM (inactive).

What about the GI50 [33] of the same compound?
Its GI50 is 42.4 µM (inactive).

What about the GI50 [34] of the same compound?
The GI50 was 24.2 µM (inactive).

What about the GI50 [35] of the same compound?
Its GI50 is 29 µM (inactive).

And the GI50 [36]?
The GI50 was 22.1 µM (inactive).

What about the GI50 [37] of the same compound?
Its GI50 is 29.2 µM (inactive).

What about the GI50 [38] of the same compound?
Its GI50 is 24.3 µM.

And the GI50 [39]?
Its GI50 is 37.7 µM (inactive).

And the GI50 [40]?
Its GI50 is 28.1 µM (inactive).

What about the GI50 [41] of the same compound?
The GI50 was 31.2 µM (inactive).

What about the GI50 [42] of the same compound?
Its GI50 is 37.6 µM (inactive).

What about the GI50 [43] of the same compound?
The GI50 was 26.8 µM (inactive).

And the GI50 [44]?
Its GI50 is 43.4 µM (inactive).

What about the GI50 [45] of the same compound?
Its GI50 is 24.8 µM (inactive).

And the GI50 [46]?
Its GI50 is 42.9 µM (inactive).

And the GI50 [47]?
The GI50 was 27.4 µM (inactive).

And the GI50 [48]?
Its GI50 is 53.8 µM (inactive).

c1ccc2c(c1)CC1=C(O2)c2ccccc2OC1 was tested. Which GI50 [1] did it give?
Its GI50 is 21.2 µM (inactive).

And the GI50 [2]?
Its GI50 is 50.2 µM (inactive).

And the GI50 [3]?
The GI50 was 39.1 µM (inactive).

And the GI50 [4]?
Its GI50 is 22.3 µM (inactive).

And the GI50 [49]?
Its GI50 is 21.8 µM (inactive).

What about the GI50 [5] of the same compound?
Its GI50 is 40.9 µM (inactive).

And the GI50 [6]?
Its GI50 is > 100 µM (inactive).

And the GI50 [7]?
Its GI50 is 23.1 µM (inactive).

And the GI50 [50]?
Its GI50 is 52.6 µM (inactive).

What about the GI50 [8] of the same compound?
Its GI50 is 25.1 µM (inactive).

And the GI50 [9]?
Its GI50 is 28.2 µM (inactive).

And the GI50 [51]?
Its GI50 is 29.4 µM (inactive).

What about the GI50 [10] of the same compound?
Its GI50 is 16.6 µM (inactive).

And the GI50 [11]?
The GI50 was 47.3 µM (inactive).

What about the GI50 [12] of the same compound?
The GI50 was 23.9 µM (inactive).

And the GI50 [13]?
Its GI50 is 17.9 µM (inactive).

And the GI50 [14]?
The GI50 was 31.8 µM (inactive).

What about the GI50 [52] of the same compound?
Its GI50 is 20.4 µM (inactive).

What about the GI50 [15] of the same compound?
The GI50 was 41.2 µM (inactive).

And the GI50 [16]?
The GI50 was 19.1 µM (inactive).

What about the GI50 [17] of the same compound?
Its GI50 is 18.9 µM (inactive).

And the GI50 [18]?
The GI50 was 21.1 µM (inactive).

And the GI50 [19]?
Its GI50 is 19.8 µM (inactive).

And the GI50 [20]?
The GI50 was 29.1 µM (inactive).

What about the GI50 [21] of the same compound?
The GI50 was 16.1 µM (inactive).

And the GI50 [22]?
Its GI50 is 23.5 µM (inactive).

And the GI50 [23]?
Its GI50 is 27.3 µM (inactive).

And the GI50 [53]?
Its GI50 is 32.7 µM (inactive).

What about the GI50 [26] of the same compound?
The GI50 was 23.1 µM (inactive).

What about the GI50 [28] of the same compound?
The GI50 was 33.2 µM (inactive).

What about the GI50 [54] of the same compound?
Its GI50 is 19.5 µM (inactive).

What about the GI50 [29] of the same compound?
The GI50 was 74.5 µM (inactive).

And the GI50 [30]?
Its GI50 is > 100 µM (inactive).

And the GI50 [31]?
The GI50 was 31.6 µM (inactive).

And the GI50 [55]?
The GI50 was 61.1 µM (inactive).

And the GI50 [32]?
Its GI50 is 38.2 µM (inactive).

And the GI50 [33]?
The GI50 was 36.6 µM (inactive).

What about the GI50 [34] of the same compound?
Its GI50 is 34.2 µM (inactive).

What about the GI50 [35] of the same compound?
Its GI50 is 26.3 µM (inactive).

What about the GI50 [37] of the same compound?
Its GI50 is 17 µM (inactive).

What about the GI50 [38] of the same compound?
The GI50 was 25.8 µM.

What about the GI50 [40] of the same compound?
The GI50 was 21.8 µM (inactive).

And the GI50 [41]?
The GI50 was 21.3 µM (inactive).

What about the GI50 [42] of the same compound?
The GI50 was 16.4 µM (inactive).

What about the GI50 [43] of the same compound?
Its GI50 is 38.2 µM (inactive).

What about the GI50 [56] of the same compound?
The GI50 was 26.2 µM (inactive).

And the GI50 [44]?
Its GI50 is 19.6 µM (inactive).

And the GI50 [45]?
Its GI50 is 35.7 µM (inactive).

What about the GI50 [46] of the same compound?
Its GI50 is > 100 µM (inactive).

What about the GI50 [47] of the same compound?
Its GI50 is 22.4 µM (inactive).

What about the GI50 [48] of the same compound?
Its GI50 is 35.9 µM (inactive).
